Results published in US11564899B2, “Therapy for transthyretin-associated amyloidosis” (SOM INNOVATION BIOTECH, S.L., priority 2011, dated 2023).

How the values were obtained:
Assay type in all cases: biochemical
[1] = molecular target: T1, Recombinant Y78F TTR protein (Homo sapiens, UniProt P02766, Y98F); test: Kinetic turbidity assay of TTR fibril formation; conditions: Y78F TTR 0.4 mg/mL, RA=100*B/(A+B)
T1 construct: made in house
Protocol: Stocks of compounds assayed as inhibitors were dissolved in DMSO (spectrophotometry grade from Sigma) at 1.5 mM concentration. Working solutions were prepared by diluting the stock solution 1:4 in H2O/DMSO (2:1). In all cases, DMSO concentration was adjusted to 5% (v/v) in the final reaction assay mixture.
The assay comprises two stages, one stage where the Y78F protein is incubated together with the inhibitor during 30 minutes, and a second stage where fibril formation is induced by a change in pH and absorbance is measured along 1.5 h. Briefly, the assay was performed as follows:
First, the following solutions were prepared: Protein Y78F stock: 4 mg/mL in 20 mM phosphate, 100 mM KCl, pH 7.6. Incubation buffer: 10 mM phosphate, 100 mM KCl, 1 mM EDTA, pH 7.6. Dilution buffer: 400 mM sodium acetate, 100 mM KCl, 1 mM EDTA, pH 4.2.
Incubation buffer was then added up to a volume of 100 μL. The plate was incubated at 37° C. in a thermostated microplate reader with orbital shaking 15 s every minute for 30 min. A 100 μL portion of dilution buffer was dispensed to each well, and the mixture was incubated at 37° C. with shaking (15 s every min) in the microplate reader. Absorbance at 340 nm was monitored for 1.5 h at 1 min intervals. Data were collected and analyzed using Microsoft Excel software. All assays were done in duplicate.
After following the general procedure indicated above, time-course curves were obtained, from which the initial rates of fibril formation (V0) were calculated as the slopes of the linear increase of absorbance. […] Data were fitted to equation (1): V0=A+B*e^−C[I] (1), where V0 is the initial rate of fibril formation (in absorbance units per hour, Abs*h^−1), and [I] is the concentration of the inhibitor (μM). Adjustable parameters are A (Abs*h^−1), residual aggregation rate at high concentration of inhibitor; B (Abs*h^−1), amplitude or maximum decrease of initial rate of fibril formation; and C (μM^−1), the exponential constant. A+B is equal to the initial rate of fibril formation under the assay conditions in the absence of inhibitor. […]

[2] = molecular target: T2, Recombinant V122I TTR protein (Homo sapiens, UniProt P02766, V142I); test: End-point turbidity assay (72 h) with V122I TTR; conditions: V122I 0.4 mg/mL
T2 construct: made in house
Protocol: Recombinant V122I TTR protein, which is an amyloidogenic variation of human TTR associated with Familial Amyloid Cardiomyopathy (FAC), was produced by following the same procedure described for the Y78F variant used in Example 1. Plasmid DNA expressing the V122I mutant was prepared by site-directed mutagenesis as reported for Y78F in Dolado et al (supra). but using the following primers: 5′-[…]-3′ and 5′-[…]-3′.
This assay is used for TTR variants with lower amyloidegenicity than the Y78F variant when the kinetic turbidity assay is not sensitive enough for accurate measurements. The procedure followed to test the inhibitors by this end-point assay at 72 h is reported in Dolado et al, (supra). V122I TTR was incubated with the inhibitor under the same conditions described above for the kinetic turbidity assay (Example 1), using V122I protein at a concentration of 0.4 mg/mL and three different concentrations of inhibitor: […], corresponding to 0.5×[protein], 1×[protein], and 3×[protein]. After acid induction (addition of dilution buffer), samples were incubated without shaking for 72 h at 37° C. and then homogenized by mixing to resuspend any fibrils present. Turbidity was measured at 340 nm and normalized to amyloidogenesis in the absence of inhibitor.
The inhibitory potency of the tested compounds was evaluated as the percentage of absorvance reduction of the inhibitor-containing samples when compared with the inhibitor-free control sample.
% Fibril reduction=100×(1-turbidity sample/turbidity blank), where turbidity sample is the turbidity measured in the presence of inhibitor, and turbidity blank is that in the absence of inhibitor.

[3] = system: plasma TTR tetramer (controls and TTR V30M carriers); conditions: human plasma (controls and V30M carriers pooled), 4 M urea IEF, relative to non-treated plasma of same donor
Protocol: The preparations were subjected to native PAGE (5% acrylamide) and the gel band containing TTR was excised and applied to an IEF gel (5% acrylamide). IEF was carried out in semi-denaturing conditions (4 M urea), containing 5% (v/v) ampholytes pH 4-6.5 (GE Healthcare), at 1200 V for 6 hours. Proteins were stained with Coomassie Blue, the gels were scanned and subjected to densitometry using the ImageQuant program (HP Scanjet 4470c, Hewlett Packard). […] A total of 12 plasma samples (5 controls and 7 carriers TTR V30M) were analyzed in 3 IEF gels. For each treatment condition, a minimum of 4 samples from different donors were processed. The ratio of TTR tetramer over Total TTR (TTR tetramer+monomer) was calculated for each plasma sample and represented in FIG. 2.
The increase of the tetramer/total TTR ratio induced by the treatment with test compounds was pooled for all samples and represented in Table 4 as % of stabilization. These values were calculated after normalizing the tetramer/total TTR ratio obtained for each sample, with the ratio obtained for the non-treated plasma of the corresponding individual donor as described below: % stabilization=100×((ratio sample−ratio nt)/ratio nt). Where “ratio sample” is tetramer/total TTR ratio in the presence of compound; and “ratio nt” is tetramer/total TTR ratio of non-treated plasma from same donor.

[4] = inhibitor 0.5x[protein] (3.6 microM)
[5] = inhibitor 1x[protein] (7.2 microM)
[6] = inhibitor 3x[protein] (21.8 microM)

| RA (%) percentage of amyloidosis reduction (reduction of fibril formation rate at high inhibitor concentration) [1] [%] | Compound | % Fibril Reduction [2, 4] [%] | % Fibril Reduction [2, 5] [%] | % Fibril Reduction [2, 6] [%] | % stabilization (average +/− sem) of TTR tetramer [3] |
| --- | --- | --- | --- | --- | --- |
| 99 | O=C(O)c1ccc2nc(-c3cc(Cl)cc(Cl)c3)oc2c1 [Tafamidis, 2-(3,5-dichlorophenyl)-1,3-benzoxazole-6-carboxylic acid] |  |  |  | 16.4 +/− 5.49% |
| 85.8 | Cc1ccc(C(=O)c2cc(O)c(O)c([N+](=O)[O-])c2)cc1 [Tolcapone, 3,4-dihydroxy-4′-methyl-5-nitrobenzophenone] | 79.3 | 84.3 | 100.0 | 29.9 +/− 7.64% |

| Compound | RA (%) percentage of amyloidosis reduction (reduction of fibril formation rate at high inhibitor concentration) [1] [%] | % Fibril Reduction [2, 4] [%] | % Fibril Reduction [2, 5] [%] | % Fibril Reduction [2, 6] [%] | % stabilization (average +/− sem) of TTR tetramer [3] |
| --- | --- | --- | --- | --- | --- |
| O=C(O)c1cc(-c2ccc(F)cc2F)cc(I)c1O [Iododiflunisal] | 99.8 | 83.2 | 85.0 | 88.2 |  |
